Assay results reported in article PMC5066224, “A Novel Resveratrol Based Tubulin Inhibitor Induces Mitotic Arrest and Activates Apoptosis in Cancer Cells” (Scientific Reports, 2016).

What was measured:
[1] = test system: several cancer cell lines; test: Cytotoxicity in cancer cell lines ex vivo (summary); assay type: cell-based
Experimental: The effect of SS28 on viability of CEM, Reh, Nalm6, SUDHL8, Molt4, A549, HeLa 293T, mouse embryonic fibroblast (MEF) and PBMC was determined by trypan blue dye exclusion assay as described previously. Briefly, cells (0.75 × 10^5 cells/ml) were treated with increasing concentrations of SS28 (1, 5, 10 and 20, μM) for 48 and 72 h. DMSO treated cells were used as the vehicle control. Cells were harvested and subjected to trypan blue assay. Data from a minimum of three independent experiments is presented as a histogram with error bars.

CEM cells = test: Intracellular ROS production (H2DCFDA, flow cytometry); assay type: cell-based, Human; settings: 5 to 60 min
Experimental: Intracellular ROS generation in cells was assessed using the oxidation-sensitive fluorescent probe 2,7-dichlorodihydro fluorescein diacetate (H2DCFDA) as previously described. CEM cells were treated with SS28 (5 μM) for 5, 10, 15, 30 and 60 min, harvested, washed and incubated with H2DCFDA (30 min at 37 °C) and then fluorescence intensity was analyzed by flow cytometry. H2O2 was used as the positive control.

## COc1cc(/C=C/c2ccc(C)cc2)cc(OC)c1OC [SS28, (E)-1,2,3-trimethoxy-5-(4-methylstyryl)benzene]
[1]
  IC50: 3 to 5 µM
CEM cells
  intracellular ROS production: did not show generation of ROS
